Data reported in ChEMBL document CHEMBL1157646, “Melanogenesis inhibitors from the desert plant Anastatica hierochuntica in B16 melanoma cells” (Bioorg Med Chem, 2010).
Active and inactive are the calls of the source. The rule behind the calls is not given here.

Key:
[1] = Toxicity in mouse B16-4A5 cells assessed as inhibition of cell proliferation at 1 uM in presence of 1 mM theophylline after 72 hrs by WST8 dye reduction assay; type: cell-based
[2] = Toxicity in mouse B16-4A5 cells assessed as inhibition of cell proliferation at 3 uM in presence of 1 mM theophylline after 72 hrs by WST8 dye reduction assay; type: cell-based
[3] = Toxicity in mouse B16-4A5 cells assessed as inhibition of cell proliferation at 10 uM in presence of 1 mM theophylline after 72 hrs by WST8 dye reduction assay; type: cell-based
[4] = Toxicity in mouse B16-4A5 cells assessed as inhibition of cell proliferation at 30 uM in presence of 1 mM theophylline after 72 hrs by WST8 dye reduction assay; type: cell-based
[5] = Toxicity in mouse B16-4A5 cells assessed as inhibition of cell proliferation in presence of 1 mM theophylline after 72 hrs by WST8 dye reduction assay; type: cell-based
[6] = biological target: T1, Tyrosinase (Agaricus bisporus) (UniProt O42713); experiment: Inhibition of mushroom tyrosinase at 1 uM
T1 sequence (whole entry): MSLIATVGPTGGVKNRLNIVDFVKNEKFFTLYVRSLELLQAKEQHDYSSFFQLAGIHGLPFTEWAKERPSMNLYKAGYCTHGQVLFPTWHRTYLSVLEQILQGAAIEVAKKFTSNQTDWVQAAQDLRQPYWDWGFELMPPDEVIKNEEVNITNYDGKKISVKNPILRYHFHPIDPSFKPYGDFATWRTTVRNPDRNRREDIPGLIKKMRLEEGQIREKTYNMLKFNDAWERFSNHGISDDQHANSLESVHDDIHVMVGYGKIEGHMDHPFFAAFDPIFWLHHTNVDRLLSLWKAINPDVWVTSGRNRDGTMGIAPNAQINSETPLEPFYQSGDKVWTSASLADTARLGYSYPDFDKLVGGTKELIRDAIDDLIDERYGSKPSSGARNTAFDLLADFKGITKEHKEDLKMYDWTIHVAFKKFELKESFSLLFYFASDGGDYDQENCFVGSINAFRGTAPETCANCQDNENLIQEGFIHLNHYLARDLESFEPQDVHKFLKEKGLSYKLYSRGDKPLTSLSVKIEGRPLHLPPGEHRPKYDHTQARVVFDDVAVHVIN

[7] = biological target: T1, Tyrosinase (Agaricus bisporus); experiment: Inhibition of mushroom tyrosinase at 3 uM
[8] = Effect on tyrosinase mRNA expression in mouse B16-4A5 cells assessed as tyrosinase mRNA/beta-actin mRNA expression ratio at 3 uM in presence of 1 mM theophylline after 72 hrs by RT-PCR; type: functional
[9] = Effect on tyrosinase mRNA expression in mouse B16-4A5 cells assessed as tyrosinase mRNA/beta-actin mRNA expression ratio at 1 uM in presence of 1 mM theophylline after 72 hrs by RT-PCR; type: functional
[10] = Effect on tyrosinase mRNA expression in mouse B16-4A5 cells assessed as tyrosinase mRNA/beta-actin mRNA expression ratio at 10 uM in presence of 1 mM theophylline after 72 hrs by RT-PCR; type: functional
[11] = Effect on tyrosinase mRNA expression in mouse B16-4A5 cells assessed as tyrosinase mRNA/beta-actin mRNA expression ratio at 30 uM in presence of 1 mM theophylline after 72 hrs by RT-PCR; type: functional
[12] = Effect on TRP1 mRNA expression in mouse B16-4A5 cells assessed as TRP1 mRNA/beta-actin mRNA expression ratio at 1 uM in presence of 1 mM theophylline after 72 hrs by RT-PCR; type: functional
[13] = Effect on TRP1 mRNA expression in mouse B16-4A5 cells assessed as TRP1 mRNA/beta-actin mRNA expression ratio at 3 uM in presence of 1 mM theophylline after 72 hrs by RT-PCR; type: functional
[14] = Effect on TRP1 mRNA expression in mouse B16-4A5 cells assessed as TRP1 mRNA/beta-actin mRNA expression ratio at 10 uM in presence of 1 mM theophylline after 72 hrs by RT-PCR; type: functional
[15] = Effect on TRP1 mRNA expression in mouse B16-4A5 cells assessed as TRP1 mRNA/beta-actin mRNA expression ratio at 30 uM in presence of 1 mM theophylline after 72 hrs by RT-PCR; type: functional
[16] = Effect on TRP2 mRNA expression in mouse B16-4A5 cells assessed as TRP2 mRNA/beta-actin mRNA expression ratio at 1 uM in presence of 1 mM theophylline after 72 hrs by RT-PCR; type: functional
[17] = Effect on TRP2 mRNA expression in mouse B16-4A5 cells assessed as TRP2 mRNA/beta-actin mRNA expression ratio at 3 uM in presence of 1 mM theophylline after 72 hrs by RT-PCR; type: functional
[18] = Effect on TRP2 mRNA expression in mouse B16-4A5 cells assessed as TRP2 mRNA/beta-actin mRNA expression ratio at 10 uM in presence of 1 mM theophylline after 72 hrs by RT-PCR; type: functional
[19] = Effect on TRP2 mRNA expression in mouse B16-4A5 cells assessed as TRP2 mRNA/beta-actin mRNA expression ratio at 30 uM in presence of 1 mM theophylline after 72 hrs by RT-PCR; type: functional
[20] = biological target: T2, Mitogen-activated protein kinase 1 and 3 (ERK2 and ERK1) (Mus musculus) (UniProt P63085+Q63844); experiment: Inhibition of ERK1/2 phosphorylation in mouse B16-4A5 cells at 100 uM in presence of 1 mM theophylline after 72 hrs by immunoblot; type: cell-based
T2 sequence (P63085 whole entry, looked up): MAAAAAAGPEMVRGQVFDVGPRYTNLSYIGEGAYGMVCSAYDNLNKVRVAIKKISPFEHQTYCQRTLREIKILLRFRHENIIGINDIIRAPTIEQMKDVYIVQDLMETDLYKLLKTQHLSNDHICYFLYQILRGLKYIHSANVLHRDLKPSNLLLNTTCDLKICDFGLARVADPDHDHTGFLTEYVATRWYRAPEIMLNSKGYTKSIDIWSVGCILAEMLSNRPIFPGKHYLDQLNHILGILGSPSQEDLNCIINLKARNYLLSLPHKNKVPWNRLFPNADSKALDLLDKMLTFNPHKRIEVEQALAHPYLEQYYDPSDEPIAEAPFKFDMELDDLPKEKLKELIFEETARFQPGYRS
T2 sequence (Q63844 whole entry, looked up): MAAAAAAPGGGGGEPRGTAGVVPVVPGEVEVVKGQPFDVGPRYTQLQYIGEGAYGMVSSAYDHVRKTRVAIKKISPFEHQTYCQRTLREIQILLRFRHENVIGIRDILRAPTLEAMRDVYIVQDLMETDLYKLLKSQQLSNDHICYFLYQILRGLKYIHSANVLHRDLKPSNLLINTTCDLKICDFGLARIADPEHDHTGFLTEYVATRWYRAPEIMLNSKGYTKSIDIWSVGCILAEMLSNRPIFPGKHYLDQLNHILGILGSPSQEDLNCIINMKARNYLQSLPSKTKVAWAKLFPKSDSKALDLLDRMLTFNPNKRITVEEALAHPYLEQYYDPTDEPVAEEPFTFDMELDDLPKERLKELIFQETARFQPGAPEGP

[21] = biological target: T1, Tyrosinase (Agaricus bisporus); experiment: Inhibition of mushroom tyrosinase assessed as inhibition of melanin production from dopachrome by autoxidation at 100 uM
cells [22] = details: Mus musculus, B16-4A5, 72 h, read-out: INH
Description: Inhibition of theophylline-stimulated melanogenesis in mouse B16-4A5 cells at 30 uM after 72 hrs

cells [23] = details: Mus musculus, B16-4A5, 72 h, read-out: INH; remark: listed apart in the source
Description: Inhibition of theophylline-stimulated melanogenesis in mouse B16-4A5 cells at 10 uM after 72 hrs

cells [24] = details: Mus musculus, B16-4A5, 72 h, read-out: INH; remark: listed apart in the source
Description: Inhibition of theophylline-stimulated melanogenesis in mouse B16-4A5 cells at 3 uM after 72 hrs

cells [25] = details: Mus musculus, B16-4A5, 72 h, read-out: INH; remark: listed apart in the source
Description: Inhibition of theophylline-stimulated melanogenesis in mouse B16-4A5 cells at 1 uM after 72 hrs

[26] = Inhibition of theophylline-stimulated melanogenesis in mouse B16-4A5 cells at 100 uM after 72 hrs; type: functional; details: B16-4A5, 72 h
[27] = biological target: T2, Mitogen-activated protein kinase 1 and 3 (ERK2 and ERK1) (Mus musculus); experiment: Inhibition of ERK1/2 phosphorylation in mouse B16-4A5 cells at 10 to 30 uM in presence of 1 mM theophylline after 72 hrs by immunoblot; type: cell-based

Row | SMILES | inhibition at 72 h, 1 µM [1] [%] | inhibition at 72 h, 3 µM [2] [%] | inhibition at 72 h, 10 µM [3] [%] | inhibition at 72 h, 30 µM [4] [%] | inhibition [6] [%] | inhibition [7] [%] | Ratio [8] | Ratio [9] | Ratio [10] | Ratio [11] | Ratio [12] | Ratio [13] | Ratio [14] | Ratio [15] | Ratio [16] | inhibition [21] | inhibition at 30 µM (cells [22]) [%] | inhibition at 10 µM (cells [23]) [%] | inhibition at 3 µM (cells [24]) [%] | inhibition at 1 µM (cells [25]) [%] | further results
1 | COc1cc([C@H]2Oc3cc([C@H]4Oc5cc(O)cc(O)c5C(=O)[C@@H]4O)ccc3O[C@@H]2CO)ccc1O [SILYBIN A] | -5.7 | -10.7 | 7.5 | 33.8 | 8.4 | 10.3 | 1.12 | 0.92 | 1.93 | 2.11 | 0.79 | 0.89 | 1.6 | 1.07 | 0.95 | inactive | 64.7 | 24.4 | 18.8 | 9.2 | IC50 at 72 h [5]: > 100 µM; Ratio [17]: 1; Ratio [18]: 2; Ratio [19]: 1.6; inhibition [20]: Active
2 | O=c1cc(-c2ccc(O)c(O)c2)oc2cc(O)cc(O)c12 [LUTEOLIN] | -4.8 | -4.9 | 4 | 23.4 | 6.4 | 7.1 | – | – | – | – | – | – | – | – | – | inactive | 76.7 | 38.1 | 13.5 | 6.2 | IC50 at 72 h [5]: > 100 µM
3 | COc1cc([C@@H]2Oc3ccc([C@H]4Oc5cc(O)cc(O)c5C(=O)[C@@H]4O)cc3O[C@H]2CO)ccc1O [ISOSILYBIN B] | – | – | – | < 8.8 | 4.2 | 4.8 | 1.15 | 0.79 | 1.33 | 0.87 | 1.22 | 1.02 | 1.14 | 1.14 | 0.97 | inactive | 73.4 | 58 | 37.5 | 18.7 | Ratio [17]: 0.7; Ratio [18]: 0.74; Ratio [19]: 0.64
4 | COc1cc([C@H]2Oc3c(OC)cc(/C=C/CO)cc3[C@@H]2CO)ccc1O | -2.7 | 0.3 | -1.6 | 23.3 | – | – | – | – | – | – | – | – | – | – | – | inactive | 72.7 | 18.6 | -5.4 | -1.6 | IC50 at 72 h [5]: > 100 µM
5 | COc1cccc(-c2cc(=O)c3ccccc3o2)c1N | – | – | – | – | – | – | 1.23 | 1.01 | 1.61 | 1.79 | 0.92 | 1.18 | 1.32 | 1.53 | 1.12 | – | – | – | – | – | Ratio [17]: 1.2; Ratio [18]: 1.3; Ratio [19]: 1.69
6 | O=C1C[C@@H](c2ccc(O)c(O)c2)Oc2cc(O)cc(O)c21 [ERIODICTYOL] | – | – | – | < 8.8 | – | – | – | – | – | – | – | – | – | – | – | inactive | 46.3 | 32.3 | 10.5 | 6.5 | inhibition at 100 µM [26]: 70.5%
7 | COc1cc([C@H]2Oc3ccc([C@H]4Oc5cc(O)cc(O)c5C(=O)[C@@H]4O)cc3O[C@@H]2CO)ccc1O [ISOSILYBIN A] | -2.2 | -1.5 | -2.5 | 16 | 5.1 | 7 | 0.97 | 0.73 | 0.85 | 0.56 | 1.11 | 1.26 | 1.12 | 0.6 | 0.68 | inactive | 72.1 | 50.2 | 19.8 | 11.7 | Ratio [17]: 0.63; Ratio [18]: 0.63; Ratio [19]: 0.36
8 | COc1cc([C@@H]2Oc3cc([C@H]4Oc5cc(O)cc(O)c5C(=O)[C@@H]4O)ccc3O[C@H]2CO)ccc1O [SILYBIN B] | -2 | -1.4 | 11.8 | 44.4 | 5.7 | 8.4 | 0.95 | 0.89 | 1.27 | 0.59 | 0.88 | 1.12 | 1.35 | 0.73 | 0.78 | – | 33 | 10.2 | 3 | -0.2 | IC50 at 72 h [5]: > 100 µM; Ratio [17]: 1.31; Ratio [18]: 1.69; Ratio [19]: 1.03; inhibition [27]: Active
